Common to all, as to format: cell-based
In one experiment the test system is Candida albicans 90028. As to the kind of experiment: In vitro antifungal assay (Example IX), microdilution broth, MIC. The settings on record: minimum inhibitory concentration (≥50% inhibition), 35° C., 40-48 h, RPMI1640. In short, it runs like this:
(§1)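 CLSI broth microdilution in RPMI1640 with 2.5×10^3 cells/mL and final compound concentrations of 2-0.0019 μg/mL (1% DMSO). C. albicans 90028 plates were incubated at 35° C. for 40-48 h and C. neoformans H99 for 72 h. MIC was read as minimum inhibitory concentration, verified at 600 nm.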

Experiment [1] concerns Cryptococcus neoformans H99. The description is as above. To be noted: minimum inhibitory concentration (≥50% inhibition), 35° C., 72 h, RPMI1640. In short, it runs like this: as §1
In a further experiment the test system is Cryptococcus gattii. The experiment is described as above. To be noted: minimum inhibitory concentration (≥50% inhibition), 35° C., 72 h (Cryptococcus), RPMI1640. Here is the method:
Preparation of Fungal Suspension. C. albicans 90028 and C. neoformans H99 strains were streaked from frozen stocks at −80° C. onto Sabouraud Dextrose Agar (SDA) plates. These were allowed to grow for 24 h (C. albicans) and 48 h (C. neoformans) at 35° C. before using them in the assay. 5-6 individual colonies were picked and diluted into sterile water to obtain a fungal suspension. The cell density of the suspension was determined and the culture diluted with RPMI1640 medium to obtain a fungal suspension of 2.5×10^3 cells/mL. The suspension was used in the MIC measurement as described below.
Preparation of Compound Stocks and Intermediate Dilutions: The compounds were weighed and DMSO was added to prepare a 10 mg/mL stock. The solutions were mixed by vortexing and sonication at 37° C. for 5-10 mins. The resulting solutions were sterile filtered using a PTFE filter, and aliquoted (12 μL or as needed) and stored at −20° C. Intermediate compound dilutions were prepared in sterile polypropylene tubes in 100% DMSO. The compound stock solution was first diluted in DMSO to obtain a concentration of […] to 0.19 μg/mL.
MIC/MEC Measurement: 99 μL 1 of the fungal suspension in RPMI1640 prepared as above was added to each well of a 96-well round bottom assay plate. 1 μL of the intermediate compound dilutions (200-0.19 μg/mL) were added to wells of the plate. This led to a 100-fold dilution of the intermediate dilutions resulting in a final compound concentration of 2-0.0019 μg/mL in the plate. 1 μL of DMSO was added to “No drug” control wells. The solutions were mixed by shaking on a plate shaker for 10 mins and plates incubated at 35° C. for 40-48 h (C. albicans, A. fumigatus, R. pusillus) and 72 h (Cryptococcus). […] This was validated by thorough mixing and reading at 600 nm on a microplate reader. The minimum concentration that led to shortening of hyphae as compared to hyphal growth in DMSO control wells was determined as the minimum effective concentration (MEC) for A. fumigatus and R. pusillus (as read for echinocandins). The use of the MIC and MEC endpoints against yeasts and molds, respectively has been described by Pfaller M A, Duncanson F, Messer S A, Moet G J, Jones R N, Castanheira M. Antimicrob Agents Chemother. 2011. 55(11):5155-8. In vitro activity of a novel broad-spectrum antifungal, E1210, tested against Aspergillus spp. determined by CLSI and EUCAST broth microdilution methods. Results are shown in Table 2, and the letters indicate the following ranges in μg/mL: […]

Experiment [2] concerns Rhizomucor pusillus 46342. Kind of experiment: In vitro antifungal assay (Example IX), microdilution broth, MEC. To be noted: minimum effective concentration (shortening of hyphae), 35° C., 40-48 h, RPMI1640. The method, boiled down:
(§2)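 Spore suspensions of A. fumigatus and R. pusillus adjusted to 1-2×10^4 spores/mL in RPMI1640 and exposed to compound dilutions prepared in DMSO, by broth microdilution. MEC taken as the lowest concentration shortening hyphae versus DMSO control wells, read as for echinocandins.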
On the technique in general: Dilution methods test growth across graded concentrations, often in twofold steps.

Experiment [3] has as its system Aspergillus fumigatus MYA3626. Described as above. The settings on record: minimum effective concentration (shortening of hyphae), 35° C., 40-48 h, RPMI1640. In short, it runs like this:
as §2

From patent US11512079B2, “Heterocycle substituted pyridine derivative antifungal agents” (Amplyx Pharmaceuticals, Inc., priority 2017, dated 2022) come the findings set out here.

In brackets after ≈: the same amount, converted by molar mass.

As to `Nc1ncccc1-c1cc(Cc2ccc(OCc3cccc(F)c3)cc2)no1` [Example 138, 3-(3-(4-((3-fluorobenzyl)oxy)benzyl)isoxazol-5-yl)pyridin-2-amine], the minimal inhibitory concentration (MIC) (in general, the lowest concentration that inhibits growth of the organism) with Candida albicans 90028 was 0.01 to 0.1 µg/mL (≈ 0.0266 to 0.266 µM); in experiment [1], 0.01 to 0.1 µg/mL (≈ 0.0266 to 0.266 µM); in the experiment on Cryptococcus gattii, not above 0.01 µg/mL. Besides, the minimal effective concentration (in general, the lowest level tested that produced the effect sought) in experiment [2] was in the range of 0.1 to 1 µg/mL; in experiment [3], 0.01 to 0.1 µg/mL.

As for `Nc1ncccc1-c1cc(Cc2ccc(OCc3ccncc3)cc2)no1` [Example 139, 3-(3-(4-(pyridin-4-ylmethoxy)benzyl)isoxazol-5-yl)pyridin-2-amine], the MIC against Candida albicans 90028 is 0.01 to 0.1 µg/mL (≈ 0.0279 to 0.279 µM); in experiment [1] it was 0.01 to 0.1 µg/mL (≈ 0.0279 to 0.279 µM); in the experiment with Cryptococcus gattii it was not above 0.01 µg/mL. For the same compound, the minimal effective concentration in experiment [2] is more than 1 µg/mL; in experiment [3] it was 0.1 to 1 µg/mL.

In the case of `Nc1ncccc1-c1cc(Cc2ccc(OCc3ccccn3)cc2)no1` [Example 140, 3-(3-(4-(pyridin-2-ylmethoxy)benzyl)isoxazol-5-yl)pyridin-2-amine], the MIC with Candida albicans 90028 is not above 0.01 µg/mL; in experiment [1], 0.01 to 0.1 µg/mL (≈ 0.0279 to 0.279 µM); in the experiment on Cryptococcus gattii it was 0.01 to 0.1 µg/mL (≈ 0.0279 to 0.279 µM). In addition, the minimal effective concentration in experiment [2] lay within 0.1 to 1 µg/mL; in experiment [3], 0.01 to 0.1 µg/mL.

For the compound `Nc1ncccc1-c1cc(Cc2ccc(OCc3ccccc3F)cc2)no1` [Example 141, 3-(3-(4-((2-fluorobenzyl)oxy)benzyl)isoxazol-5-yl)pyridin-2-amine], the MIC (in the experiment on Candida albicans 90028; in experiment [1]; in the experiment with Cryptococcus gattii) was 0.01 to 0.1 µg/mL (≈ 0.0266 to 0.266 µM) each time. The results for the minimal effective concentration in experiment [2] and in experiment [3] were 0.1 to 1 µg/mL and 0.01 to 0.1 µg/mL, respectively.

`Nc1ncccc1-c1cc(Cc2ccc(Oc3ccccc3)nc2)no1` [Example 143, 3-(3-((6-phenoxypyridin-3-yl)methyl)isoxazol-5-yl)pyridin-2-amine]: the figures for the MIC (in the experiment with Candida albicans 90028; in experiment [1]; in the experiment with Cryptococcus gattii) were 0.1 to 1 µg/mL (≈ 0.29 to 2.9 µM), 0.01 to 0.1 µg/mL (≈ 0.029 to 0.29 µM) and not above 0.01 µg/mL, respectively. The minimal effective concentration in experiment [2] was 0.1 to 1 µg/mL; in experiment [3] it was 0.01 to 0.1 µg/mL.

Consider `Nc1ncccc1-c1cc(Cc2ccc(Nc3ccccc3)cc2)no1` [Example 144, 3-(3-(4-(phenylamino)benzyl)isoxazol-5-yl)pyridin-2-amine], for which the minimal inhibitory concentration (MIC) (with Candida albicans 90028; in experiment [1]; in the experiment with Cryptococcus gattii) was 0.01 to 0.1 µg/mL (≈ 0.0292 to 0.292 µM) throughout. For the same compound, the minimal effective concentration was in the range of 0.1 to 1 µg/mL in experiment [2] and 0.01 to 0.1 µg/mL in experiment [3].

As to `Nc1ncccc1-c1cc(Cc2ccnc(OCCc3cccc(F)c3)c2)no1` [Example 146, 3-(3-((2-(3-fluorophenethoxy)pyridin-4-yl)methyl)isoxazol-5-yl)pyridin-2-amine], the MIC (in the experiment with Candida albicans 90028; in experiment [1]; in the experiment with Cryptococcus gattii) was 0.1 to 1 µg/mL (≈ 0.256 to 2.56 µM) each time. Further, the minimal effective concentration in experiment [2] and in experiment [3] was more than 1 µg/mL throughout.

Consider `Nc1ncccc1-c1cc(Cc2ccc(/C=C/c3cccc(F)c3)cc2)no1` [compound 233, (E)-3-(3-(4-(3-fluorostyryl)benzyl)isoxazol-5-yl)pyridin-2-amine], for which the MIC (in the experiment with Candida albicans 90028; in experiment [1]; in the experiment with Cryptococcus gattii) was more than 1 µg/mL in each case. This compound registered a minimal effective concentration in experiment [3] of 0.1 to 1 µg/mL.

`Nc1ncccc1-c1cc(Cc2ccc(Nc3cc(F)cc(F)c3)nc2)no1` [compound 238, 5-((5-(2-aminopyridin-3-yl)isoxazol-3-yl)methyl)-N-(3,5-difluorophenyl)pyridin-2-amine]: the results for the MIC (in the experiment with Candida albicans 90028; in experiment [1]; against Cryptococcus gattii) were more than 1 µg/mL, 0.1 to 1 µg/mL (≈ 0.264 to 2.64 µM) and 0.1 to 1 µg/mL (≈ 0.264 to 2.64 µM), respectively. Moreover, the minimal effective concentration in experiment [3] is more than 1 µg/mL.

For `Nc1ncccc1-c1cc(Cc2cnc(OCC3CC3)c(F)c2)no1` [compound 247, 3-(3-((6-(cyclopropylmethoxy)-5-fluoropyridin-3-yl)methyl)isoxazol-5-yl)pyridin-2-amine], the MIC with Candida albicans 90028 is 0.01 to 0.1 µg/mL (≈ 0.0294 to 0.294 µM); in experiment [1], 0.1 to 1 µg/mL (≈ 0.294 to 2.94 µM); with Cryptococcus gattii, more than 1 µg/mL. The minimal effective concentration in experiment [3] was in the range of 0.01 to 0.1 µg/mL.

`Nc1ncccc1-c1cc(Cc2cnc(Oc3cc(F)cc(F)c3)nc2)no1` [compound 248, 3-(3-((2-(3,5-difluorophenoxy)pyrimidin-5-yl)methyl)isoxazol-5-yl)pyridin-2-amine]: the MIC (in the experiment on Candida albicans 90028; in experiment [1]; against Cryptococcus gattii) was more than 1 µg/mL each time. Further, the minimal effective concentration in experiment [3] fell in the range of 0.1 to 1 µg/mL.

On to `Nc1ncccc1-c1cc(Cc2cnc(OCc3cccc(F)c3)nc2)no1` [compound 249, 3-(3-((2-((3-fluorobenzyl)oxy)pyrimidin-5-yl)methyl)isoxazol-5-yl)pyridin-2-amine], for which the minimum inhibitory concentration (MIC) was 0.1 to 1 µg/mL (≈ 0.265 to 2.65 µM) against Candida albicans 90028, 0.1 to 1 µg/mL (≈ 0.265 to 2.65 µM) in experiment [1] and more than 1 µg/mL against Cryptococcus gattii. In addition, in experiment [3], the minimal effective concentration fell in the range of 0.01 to 0.1 µg/mL.

For the compound `Nc1ncccc1-c1cc(Cc2cnc(OCc3cccc(F)c3)c(F)c2)no1` [compound 251, 3-(3-((5-fluoro-6-((3-fluorobenzyl)oxy)pyridin-3-yl)methyl)isoxazol-5-yl)pyridin-2-amine], the MIC (with Candida albicans 90028; in experiment [1]; against Cryptococcus gattii) was 0.1 to 1 µg/mL (≈ 0.254 to 2.54 µM) each time. In experiment [3], this compound had a minimal effective concentration of 0.01 to 0.1 µg/mL.

Take `Nc1ncccc1-c1cc(Cc2cnc(Oc3cc(F)cc(F)c3)c(F)c2)no1` [compound 252, 3-(3-((6-(3,5-difluorophenoxy)-5-fluoropyridin-3-yl)methyl)isoxazol-5-yl)pyridin-2-amine]: the minimal inhibitory concentration (MIC) (with Candida albicans 90028; in experiment [1]; in the experiment with Cryptococcus gattii) was 0.1 to 1 µg/mL (≈ 0.251 to 2.51 µM) each time. Further, in experiment [3], the minimal effective concentration fell in the range of 0.1 to 1 µg/mL.

In the case of `Nc1ncccc1-c1cc(Cc2cnc(Oc3ccccc3F)c(F)c2)no1` [compound 254, 3-(3-((5-fluoro-6-(2-fluorophenoxy)pyridin-3-yl)methyl)isoxazol-5-yl)pyridin-2-amine], the MIC in the experiment with Candida albicans 90028 was 0.01 to 0.1 µg/mL (≈ 0.0263 to 0.263 µM); in experiment [1], 0.1 to 1 µg/mL (≈ 0.263 to 2.63 µM); in the experiment with Cryptococcus gattii, more than 1 µg/mL. The compound further had a minimal effective concentration in experiment [3] of 0.01 to 0.1 µg/mL.

Take `Nc1ncccc1-c1cc(Cc2cnc(Oc3ccccc3)c(F)c2)no1` [compound 255, 3-(3-((5-fluoro-6-phenoxypyridin-3-yl)methyl)isoxazol-5-yl)pyridin-2-amine]: the minimum inhibitory concentration (MIC) in the experiment on Candida albicans 90028 is 0.01 to 0.1 µg/mL (≈ 0.0276 to 0.276 µM); in experiment [1] it was 0.1 to 1 µg/mL (≈ 0.276 to 2.76 µM); in the experiment on Cryptococcus gattii, more than 1 µg/mL. The compound further came in with a minimal effective concentration in experiment [3] of 0.01 to 0.1 µg/mL.

With `Nc1ncccc1-c1cc(Cc2cnc(Oc3cccc(F)c3)c(F)c2)no1` [compound 256, 3-(3-((5-fluoro-6-(3-fluorophenoxy)pyridin-3-yl)methyl)isoxazol-5-yl)pyridin-2-amine], the MIC was 0.01 to 0.1 µg/mL (≈ 0.0263 to 0.263 µM) with Candida albicans 90028, 0.1 to 1 µg/mL (≈ 0.263 to 2.63 µM) in experiment [1] and more than 1 µg/mL in the experiment with Cryptococcus gattii. Also, the minimal effective concentration in experiment [3] lay within 0.1 to 1 µg/mL.

As to `Nc1ncccc1-c1cc(Cc2ccc(Oc3ncccn3)c(F)c2)no1` [compound 259, 3-(3-(3-fluoro-4-(pyrimidin-2-yloxy)benzyl)isoxazol-5-yl)pyridin-2-amine], the MIC against Candida albicans 90028 was more than 1 µg/mL; in experiment [1] it was 0.1 to 1 µg/mL (≈ 0.275 to 2.75 µM); in the experiment on Cryptococcus gattii, more than 1 µg/mL. In experiment [3], this compound gave a minimal effective concentration of 0.01 to 0.1 µg/mL.

`Nc1ncccc1-c1cc(Cc2cnc(OCc3ccccc3F)c(F)c2)no1` [compound 260, 3-(3-((5-fluoro-6-((2-fluorobenzyl)oxy)pyridin-3-yl)methyl)isoxazol-5-yl)pyridin-2-amine]: the MIC was 0.1 to 1 µg/mL (≈ 0.254 to 2.54 µM) in the experiment on Candida albicans 90028, 0.1 to 1 µg/mL (≈ 0.254 to 2.54 µM) in experiment [1] and more than 1 µg/mL in the experiment on Cryptococcus gattii. This compound also came in with a minimal effective concentration in experiment [3] of 0.1 to 1 µg/mL.
